From ChEMBL document CHEMBL5321293, “Discovery of ERD-3111 as a Potent and Orally Efficacious Estrogen Receptor PROTAC Degrader with Strong Antitumor Activity” (J Med Chem, 2023) come the findings set out here.

Data set [1] is described as follows: Downregulation of ERalpha protein expression in tumor of CB17 SCID mouse xenografted with human MCF7 cells harboring wild type ESR1 at 30 mg/kg, po qd for 3 days and measured after 24 hrs last dose by Western blot analysis relative to control. Type of data set: functional. The conditions noted are these: time 3 day.
Data set [2] concerns MCF7. As to the kind of experiment: Antitumor activity against human MCF7 cells harboring wild type ESR1 xenografted in CB17 SCID mouse assessed as tumor growth inhibition at 10 mg/kg, po qd for 5 weeks. Type of data set: functional. The following applies: MCF7, 840 h, read-out: TGI.
The test system of data set [3] is MCF7. As to the kind of experiment: Antitumor activity against human MCF7 cells harboring ESR1 D538G mutant xenografted in CB17 SCID mouse assessed as tumor growth inhibition at 30 mg/kg, po qd for 4 weeks and measured 1 week post last dose. Format: functional, organism-based. On the technique in general: A xenograft is tissue or cells of one species grown in another, often human tumour cells in immunodeficient mice.

The subject of data set [4] is MCF7. As to the kind of experiment: Antitumor activity against human MCF7 cells harboring ESR1 Y537S mutant xenografted in CB17 SCID mouse assessed as tumor growth inhibition at 30 mg/kg, po qd for 4 weeks. Type of data set: functional.
Data set [5] is described as follows: Toxicity in CB17 SCID mouse xenografted with human MCF7 cells harboring wild type ESR1 assessed as body weight change at 10 mg/kg,po qd for 5 weeks. Format: organism-based. The following applies: in vivo, 840 h.
Data set [6] in a line: Downregulation of ERalpha protein expression in tumor of CB17 SCID mouse xenografted with human MCF7 cells harboring ESR1 Y537S mutant at 30 mg/kg, po qd for 3 days and measured after 6 hrs last dose by Western blot analysis relative to control. Format: functional. The following applies: time 3 day.
Data set [7] has as its system MCF7. As to the kind of experiment: Antitumor activity against human MCF7 cells harboring ESR1 D538G mutant xenografted in CB17 SCID mouse assessed as tumor growth inhibition at 30 mg/kg, po qd for 4 weeks. Type of data set: functional. The following applies: MCF7, 672 h, read-out: TGI.
The subject of data set [8] is MCF7. As to the kind of experiment: Antitumor activity against human MCF7 cells harboring ESR1 Y537S mutant xenografted in CB17 SCID mouse assessed as tumor growth inhibition at 30 mg/kg, po qd for 4 weeks and measured 30 days post last dose. Type of data set: functional.
Data set [9] in a line: Toxicity in CB17 SCID mouse xenografted with human MCF7 cells harboring ESR1 Y537S mutant assessed as body weight change at 30 mg/kg,po qd for 4 weeks. Type of data set: organism-based. The conditions noted are these: in vivo, 672 h.
Data set [10] in a line: Downregulation of ERalpha protein expression in tumor of CB17 SCID mouse xenografted with human MCF7 cells harboring wild type ESR1 at 30 mg/kg, po qd for 3 days and measured after 3 hrs last dose by Western blot analysis relative to control. The following applies: time 3 day. Format: functional.
Data set [11] is described as follows: Toxicity in CB17 SCID mouse xenografted with human MCF7 cells harboring ESR1 D538G mutant assessed as body weight change at 30 mg/kg,po qd for 4 weeks. Format: organism-based. The following applies: in vivo, 672 h.
In data set [12] the target is T1, Protein cereblon/Estrogen receptor (Homo sapiens, UniProt P03372+Q96SW2). As to the kind of experiment: Protac activity at human ERalpha in human MCF7 cells assessed as induction of ERalpha degradation by measuring maximum efficacy at 1 uM incubated for 12 hrs by ICW blot assay relative to control. Type of data set: cell-based.
Target sequence in this assay (P03372 whole entry, looked up): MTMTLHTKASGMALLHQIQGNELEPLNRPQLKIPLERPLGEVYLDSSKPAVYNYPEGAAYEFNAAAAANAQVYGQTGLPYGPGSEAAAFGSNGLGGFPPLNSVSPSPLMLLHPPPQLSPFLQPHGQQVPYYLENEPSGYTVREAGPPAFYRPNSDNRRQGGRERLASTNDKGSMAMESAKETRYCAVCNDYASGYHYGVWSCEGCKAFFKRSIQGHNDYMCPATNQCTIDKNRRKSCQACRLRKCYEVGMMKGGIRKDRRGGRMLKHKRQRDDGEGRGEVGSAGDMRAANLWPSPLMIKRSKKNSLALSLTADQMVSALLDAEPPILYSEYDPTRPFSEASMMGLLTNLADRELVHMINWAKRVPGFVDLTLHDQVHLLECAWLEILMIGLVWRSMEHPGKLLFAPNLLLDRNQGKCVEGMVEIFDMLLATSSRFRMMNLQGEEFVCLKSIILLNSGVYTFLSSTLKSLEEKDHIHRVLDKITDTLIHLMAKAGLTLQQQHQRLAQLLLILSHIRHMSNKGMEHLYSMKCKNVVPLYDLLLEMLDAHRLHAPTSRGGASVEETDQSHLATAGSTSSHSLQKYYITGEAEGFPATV
Target sequence in this assay (Q96SW2 whole entry, looked up): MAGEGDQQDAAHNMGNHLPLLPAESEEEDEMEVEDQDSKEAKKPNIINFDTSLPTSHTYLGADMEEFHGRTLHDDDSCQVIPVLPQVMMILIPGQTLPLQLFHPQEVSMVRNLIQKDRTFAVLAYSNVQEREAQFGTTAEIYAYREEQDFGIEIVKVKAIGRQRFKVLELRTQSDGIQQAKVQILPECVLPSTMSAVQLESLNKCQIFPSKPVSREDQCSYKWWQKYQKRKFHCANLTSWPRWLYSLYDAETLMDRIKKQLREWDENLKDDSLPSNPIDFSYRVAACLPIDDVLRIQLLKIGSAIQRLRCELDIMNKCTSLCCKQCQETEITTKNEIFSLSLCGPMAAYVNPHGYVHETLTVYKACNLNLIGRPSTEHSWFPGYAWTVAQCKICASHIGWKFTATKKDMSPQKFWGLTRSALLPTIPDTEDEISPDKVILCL
Data set [13] in a line: Plasma concentration in Sprague-Dawley rat at 5 mg/kg,po and mesured after 1 hrs by LC-MS/MS analysis. Type of data set: ADME, organism-based.
Data set [14] in a line: Plasma concentration in Sprague-Dawley rat at 5 mg/kg,po and mesured after 6 hrs by LC-MS/MS analysis. Format: ADME, organism-based.
For data set [15], the target named is T1, Protein cereblon/Estrogen receptor. The experiment in a line: Protac activity at human ERalpha in human MCF7 cells assessed as protein degradation incubated for 12 hrs by ICW blot assay. Type of data set: cell-based.
Target sequence in this assay (P03372 whole entry): as the sequence (P03372 whole entry, looked up) above
Target sequence in this assay (Q96SW2 whole entry): as the sequence (Q96SW2 whole entry, looked up) above
Data set [16] can be described thus: Plasma concentration in Sprague-Dawley rat at 5 mg/kg,po and mesured after 3 hrs by LC-MS/MS analysis. Format: ADME, organism-based.
Data set [17] is described as follows: Plasma concentration in Sprague-Dawley rat at 3 mg/kg,po and mesured after 6 hrs by LC-MS/MS analysis. Format: ADME, organism-based.
Data set [18] can be described thus: Plasma concentration in Sprague-Dawley rat at 3 mg/kg,po and mesured after 1 hrs by LC-MS/MS analysis. Format: ADME, organism-based.
A short description of data set [19]: Plasma concentration in Sprague-Dawley rat at 3 mg/kg,po and mesured after 3 hrs by LC-MS/MS analysis. Format: ADME, organism-based.
Data set [20] in a line: Plasma concentration in Sprague-Dawley rat at 3 mg/kg,po and mesured after 24 hrs by LC-MS/MS analysis. Format: ADME, organism-based.
The nature of data set [21]: Plasma protein binding in human. Type of data set: ADME, cell-free. The conditions noted are these: read-out: PPB (converted).
A short description of data set [22]: Half life in Sprague-Dawley rat at 3 mg/kg, po and measured upto 24 hrs by LC-MS/MS analysis. The conditions noted are these: in vivo.
Data set [23] in a line: Clearance in Sprague-Dawley rat at 1 mg/kg, iv and measured upto 24 hrs by LC-MS/MS analysis. The following applies: in vivo.
Data set [24] in a line: in vivo. The following applies: Sprague-Dawley, rat, po, 3 mg/kg.
A short description of data set [25]: in vivo. The conditions noted are these: Sprague-Dawley, rat, po, 3 mg/kg. This is another data set of the same source.
Data set [26] in a line: Plasma protein binding in mouse. Type of data set: ADME, cell-free. The conditions noted are these: read-out: PPB (converted).
Data set [27] is described as follows: Plasma protein binding in rat. Type of data set: ADME, cell-free. The following applies: read-out: PPB (converted).
Data set [28] is described as follows: Plasma protein binding in dog. Format: ADME, cell-free, Canis lupus familiaris. The following applies: read-out: PPB (converted).
Data set [29] can be described thus: Volume of distribution at steady state in Sprague-Dawley rat at 1 mg/kg, iv and measured upto 24 hrs by LC-MS/MS analysis. The conditions noted are these: in vivo.
A short description of data set [30]: Plasma protein binding in monkey. Type of data set: ADME, cell-free, Macaca mulatta. The conditions noted are these: rhesus monkey, read-out: PPB (converted).
Data set [31] can be described thus: AUC in Sprague-Dawley rat at 3 mg/kg, po and measured upto 24 hrs by LC-MS/MS analysis. The conditions noted are these: in vivo; for AUC at 24 h: Sprague-Dawley. Details: dose 3 mg/kg, time < 24 hrs, route po. Format: ADME, organism-based.
The conditions of data set [32]: rat, in vivo, po, 3 mg/kg, 24 h.
Data set [33] is described as follows: Volume of distribution at steady state in ICR mouse at 1 mg/kg, iv and measured upto 24 hrs by LC-MS/MS analysis. Type of data set: ADME, organism-based. The following applies: in vivo, read-out: Vdss.
Data set [34] is described as follows: AUC in ICR mouse at 3 mg/kg, po and measured upto 24 hrs by LC-MS/MS analysis. Type of data set: ADME, organism-based. The conditions noted are these: in vivo. Details: dose 3 mg/kg, time < 24 hrs, route po.
A short description of data set [35]: Oral bioavailability in ICR mouse at 3 mg/kg and measured upto 24 hrs by LC-MS/MS analysis. Type of data set: ADME, organism-based. The conditions noted are these: in vivo.
The nature of data set [36]: Clearance in ICR mouse at 1 mg/kg, iv and measured upto 24 hrs by LC-MS/MS analysis. Format: ADME, organism-based. The conditions noted are these: in vivo.
Data set [37] is described as follows: Half life in ICR mouse at 3 mg/kg, po and measured upto 24 hrs by LC-MS/MS analysis. Type of data set: ADME, organism-based. The conditions noted are these: in vivo.
Data set [38] is described as follows: Cmax in ICR mouse at 3 mg/kg, po and measured upto 24 hrs by LC-MS/MS analysis. Format: ADME, organism-based. The arrangement: dose 3 mg/kg, time < 24 hrs, route po. The following applies: in vivo.

SMILES strings stand for the structures. Activity calls are given as the source filed them.

In the case of `O=C1CC[C@H](N2Cc3cc(N4CCN(CC5CCN(c6ccc([C@@H]7c8ccc(O)cc8CC[C@@H]7c7ccccc7)cc6)CC5)CC4)ccc3C2=O)C(=O)N1` [VEPDEGESTRANT], the Activity is 78% in [1]; “Non-Toxic” in data set [5]; 77% in data set [6]; “Non-Toxic” in data set [9]; 83% in data set [10]; “Non-Toxic” in [11]. Besides, the inhibition in vivo at 10 mg/kg in [2] came out at 87%. Further, the result in data set [3], in [4] and in data set [8] was Active. In addition, the inhibition in vivo at 30 mg/kg in [7] came out at 47%.
With `C[C@@H]1Cc2c([nH]c3ccccc23)[C@@H](c2c(F)cc(N3CCC4(CCN(C(=O)CN5Cc6cc7c(cc6C5)C(=O)N(C5CCC(=O)NC5=O)C7=O)CC4)CC3)cc2F)N1CC(F)F` (some centres undefined), the Emax (usually the maximal effect, on the per cent scale that the assay sets) in data set [12] was determined as 106%. Also, the concentration at 1 h in [13] worked out at 8.3 ng/mL. Moreover, in [14], the concentration at 6 h was 10.3 ng/mL. In addition, the DC50 (usually the concentration at which degradation of the target reaches its halfway point) in data set [15] stood at 0.8 nM. In data set [16], the concentration at 3 h came to 14 ng/mL.
For `C[C@@H]1Cc2c([nH]c3ccccc23)[C@@H](c2c(F)cc(N3CCC4(CCN(C(=O)CN5Cc6cc7c(cc6C5)C(=O)N(C5CCC(=O)NC5=O)C7=O)CC4)CC3)cc2F)N1CC(F)(F)CO` (some centres undefined), the Emax in data set [12] was found to be 97%. In data set [17], this compound gave a concentration at 6 h of 3 ng/mL. For the same compound, the concentration at 1 h in [18] is 9.3 ng/mL. Further, the DC50 in [15] came to 0.1 nM. This compound registered a concentration at 3 h in data set [19] of 6.6 ng/mL.
With `C[C@@H]1Cc2c([nH]c3ccccc23)[C@@H](c2c(F)cc(N3CCC4(CCN(C(=O)CN5Cc6cc7c(cc6C5)C(=O)N(C5CCC(=O)NC5=O)C7=O)CC4)CC3)cc2F)N1CC(C)(C)F` (some centres undefined), the Emax in [12] turned out to be 83%. The same compound returned a concentration at 6 h in data set [17] of 8.3 ng/mL. In data set [20], the concentration at 24 h is 4 ng/mL. This compound yielded a concentration at 1 h in data set [18] of 7.9 ng/mL. For the same compound, the DC50 in data set [15] came out at 0.8 nM. In data set [19], the concentration at 3 h was determined as 8.2 ng/mL.
As for `CN1Cc2cc3c(cc2C1)C(=O)N(C1CCC(=O)NC1=O)C3=O` (centres undefined), the fraction unbound in data set [21] was 0.875; in [26], 0.737; in data set [27] it was 0.635; in data set [28], 0.83; in data set [30], 0.856. Also, in [22], the half-life (usually the time needed for the level to fall by half in the phase considered) at 24 h is 1.8 h. In data set [23], the clearance (as a rule, the rate of elimination divided by the concentration) at 24 h was 29.2 mL/min/kg. Moreover, the bioavailability (usually dose-corrected exposure relative to a reference, in per cent) at 24 h in data set [24] amounted to 70%. Further, the Cmax (commonly the maximum level reached in the sampled fluid or tissue) at 24 h in [25] was 228 ng/mL. This compound showed a Vd at 24 h in data set [29] of 5 L/kg. Besides, the AUC (in general, concentration integrated over time) at 24 h in data set [31] is 1150 ng·h/mL.
For `O=C1CCC(N2C(=O)c3cc4c(cc3C2=O)CN(CC2CCN(CC3CCN(c5ccc([C@@H]6c7ccc(O)cc7CC[C@@H]6c6ccccc6)cc5)CC3)CC2)C4)C(=O)N1` (some centres undefined), the Emax in data set [12] came out at 79%. In [22], this compound showed a half-life at 24 h of 16 h. In addition, the highest level in [25] (Cmax at 24 h) was 24.9 ng/mL. The compound also showed a F in data set [32] of 36%. In data set [29], the Vd at 24 h was determined as 55.4 L/kg. In addition, the DC50 in data set [15] was 4.3 nM. For the same compound, the AUC in data set [31] (24 h) was 399 ng·h/mL.
With `O=C1CCC(N2C(=O)c3cc4c(cc3C2=O)CN(CC(=O)N2CCC3(CC2)CCN(c2ccc([C@@H]5c6ccc(O)cc6CC[C@@H]5c5ccccc5)cc2)CC3)C4)C(=O)N1` (some centres undefined), the Vd in [33] amounted to 2.2 L/kg. The Emax in data set [12] came to 90%. Further, the half-life at 24 h in data set [22] was 2.5 h. Besides, the results for the AUC at 24 h in [34] and in data set [31] were 550 ng·h/mL and 328 ng·h/mL, respectively. The clearance at 24 h in data set [23] is 20 mL/min/kg. Further, in data set [24], the bioavailability at 24 h came out at 13%. For the same compound, in [25], the highest level (Cmax at 24 h) was 69.5 ng/mL. In [35], this compound yielded a bioavailability of 35%. The compound further registered a clearance in data set [36] of 31 mL/min/kg. This compound also yielded a Vd at 24 h in data set [29] of 1.6 L/kg. The DC50 in [15] is 5.5 nM. The half-life in data set [37] is 3.1 h. The same compound displayed a Cmax in data set [38] of 146 ng/mL.
